According to US20250042941A1, “PEPTIDE HAVING PHYSIOLOGICAL ACTIVITY AND USE THEREOF” (CAREGEN CO., LTD., priority 2021, published 2025):

Assays:
human AD-MSC cells = experiment: ECM gene expression in mesenchymal stem cells (RT-PCR); format: cell-based; conditions: peptide 50 and 100 μg/ml, days 3, 7, 11, FIGS. 7A to 7C
Method: Adipose-derived mesenchymal stem cells were treated with the peptide containing the amino acid sequence of SEQ ID NO: 1, and then it was confirmed whether there was an increase in expression of cartilage oligomeric matrix protein (COMP), collagen type 11A (COL 11A), PCP, and ACAN (aggrecan) genes associated with the ECM production.
After removing the medium on days 3, 7, and 11, cells were harvested and RNA was isolated. After synthesizing cDNA using a cDNA synthesis kit (Intron, Korea), PCR was performed for COMP, COL 11A, PCP, ACAN, and GAPDH genes using PCR pre-mix (Intron, Korea).

[1] = tested on: human C28/12 chondrocyte cell line; experiment: ECM production in chondrocytes, alcian blue staining; format: cell-based; conditions: peptide 30, 50, 100, 150 μg/ml, day 6, FIG. 2
Method: In order to confirm the cartilage regeneration effect of treatment with the peptide of the present invention containing the amino acid sequence of SEQ ID NO: 1, human-derived chondrocytes were treated with the peptide of SEQ ID NO: 1, and then it was confirmed whether there was an increase in formation of glycosaminoglycan, which is an ECM component.
(§1) After removing the medium on day 6, 60 μl of 3.7% formalin was added to the 96-well plate to be stained and fixed for 1 minute. After removing the 3.7% formalin, 70 μl of an alcian blue staining solution (50 ml of 3% acetic acid+0.5 g of 1% Asian blue 8GX, pH 2.5) was added, and incubation was performed at 37° C. for 24 hours. Thereafter, the staining solution was removed, washing with triple distilled water and drying were performed, and then observation was performed with a microscope.

[2] = tested on: mouse RAW264.7 macrophage cell line; experiment: Actin ring formation in osteoclasts induced by RANKL (immunofluorescence); format: cell-based; conditions: peptide 50 and 100 μg/ml with RANKL, 4 days, FIG. 12
Method: In addition to the results of Experimental Examples 9 and 10, in order to further confirm the effect of inhibiting osteoclast differentiation according to the treatment with the peptide containing the amino acid sequence of SEQ ID NO: 1 of the present invention, mouse RAW264. […] After removing the medium, the cells were washed three times with cooled PBS and fixed with 4% paraformaldehyde for 30 minutes. The cells were washed three times with cooled PBS for 5 minutes, and then the cells were permeabilized with 0.3% Triton X-100 in PBS for 30 minutes. The cells were washed three times with cooled PBS for 5 minutes, and the cells were blocked with filtered 3% BSA in PBS for 1 hour with stirring. Incubation was performed with primary antibodies (Rhodamin (Red) [Invitrogen™]) diluted to 1:100 with a blocking medium with stirring for 2 hours. The cells were blocked from light and washed three times with PBS for 15 minutes with stirring, DAPI mounting medium (VECTASHIELD® MOUNTING MEDIUM with DAPI) was added, and then each well was covered with a cover slip and observed with a microscope.

[3] = tested on: mouse RAW264.7 macrophage cell line; experiment: Inflammatory cytokine mRNA in macrophages induced by inflammation with TNFα (RT-PCR); format: cell-based; conditions: peptide 100 and 150 μg/ml 1 hour, then 20 nM TNF-α 24 hours, FIG. 8
Method: In addition to the cartilage regenerative activity confirmed in Experimental Examples 1 to 6, in order to confirm the anti-inflammatory effect according to the treatment with the peptide containing the amino acid sequence of SEQ ID NO: 1 of the present invention, mouse RAW264.7 macrophage cell line was treated with TNF to induce inflammation, and the expression levels of TNFα and IL-18, which are inflammatory cytokines, and Cox2 gene, which is an inflammation-inducing marker, were confirmed. The cytokine TNFα was treated to induce inflammation. Since TNFα corresponds to a signal transduction protein related to an inflammatory response, IL-18 corresponds to a cytokine that promotes an inflammatory response, and Cox2 is an inflammation-related protein, a degree of the inflammatory response may be confirmed by measuring the expression levels of TNFα, Cox2, and […] genes. To this end, mouse RAW264.7 cell line was distributed in a 6-well plate at a density of 2×10^5 cells/well and cultured in α-MEM medium containing 10% FBS for 24 hours. The medium was replaced with serum-free α-MEM medium (1% penicillin) and then fasted for 6 hours. […] After 1 hour, the cells were treated with 20 nM TNF-α and incubated for 24 hours. Thereafter, the cells were harvested and RNA was isolated. […]

mouse RAW264.7 cell line [4] = experiment: Osteoclast differentiation induced by RANKL, TRAP staining; format: cell-based; conditions: peptide 10 to 150 μg/ml with RANKL, 4 days, FIG. 10A
Method: After removing the medium, the cells were fixed for 30 seconds and washed twice with double distilled water. Staining was performed with 100 μl of a TRAP staining solution (acid phosphatase kit, Sigma aldrich) at 37° C. for 30 minutes. Thereafter, the staining solution was removed, washing with double distilled water three times and drying were performed, and then observation was performed with a microscope.

[5] = tested on: human adipose-derived mesenchymal stem cells (AD-MSCs); experiment: Differentiation of mesenchymal stem cells into chondrocytes and ECM production, alcian blue staining; format: cell-based; conditions: peptide 30, 50, 100, 150 μg/ml, day 15, FIG. 5
Method: Adipose-derived mesenchymal stem cells were treated with the peptide containing the amino acid sequence of SEQ ID NO: 1, and then the effect on chondrogenic differentiation of the stem cells and ECM production was confirmed.
as §1, with “15,” for “6,”

SOX9 protein = experiment: Expression of ECM regulator SOX9 in mesenchymal stem cells (Western blot); format: cell-based, human; conditions: AD-MSC, peptide 50 and 100 μg/ml, days 3, 7, 14, FIGS. 6A to 6C
Method: Adipose-derived mesenchymal stem cells were treated with the peptide containing the amino acid sequence of SEQ ID NO: 1, and then it was confirmed whether there was an increase in expression of SOX9 protein, which is an ECM regulator.
At this time, as a positive control (CM), a solution containing dexamethasone (100 nM)+ascorbic acid (50 μM)+proline (40 μM)+TGFβ1 (10 ng/ml)+1X ITS was used. After removing the medium on days 3, 7, and 14, cells were harvested, a cell lysate was prepared, and Western blot was performed using antibodies (Millipore, USA) against the SOX9 and SOX5 proteins.

mouse RAW264.7 cell line [6] = experiment: Cytotoxicity / cell proliferation, CCK-8 assay; format: cell-based; conditions: peptide 10, 30, 50, 100, 150 μg/ml, 3 days
Method: The effect of the peptide of the present invention on cell proliferation was confirmed using CCK-8 assay. CCK-8 reagent is reduced by cellular dehydrogenase to produce a colored product, and the proliferation of cells may be confirmed through a difference in absorbance using this.
After removing the medium, CCK-8 solution (Dojindo, CCK-8 kit) was diluted 10 times in the culture medium and treated at 100 μl each. During incubation at 37° C., absorbance at a wavelength of 450 nm was measured using a microplate reader at 30-minute intervals.

[7] = tested on: human C28/12 chondrocyte cell line; experiment: ECM production in three-dimensional culture of chondrocytes (alginate beads, alcian blue or toluidine blue); format: cell-based; conditions: peptide 100 and 150 μg/ml, day 9, FIG. 4
Method: Human-derived chondrocytes were treated with the peptide containing the amino acid sequence of SEQ ID NO: 1 in three-dimensional culture, and then it was confirmed whether there was an increase in the formation of glycosaminoglycan, which is an ECM component.
To this end, 3×10^6 cells of human C28/12 chondrocyte cell line were suspended in 1 ml of an alginate solution (1.25% alginate, 20 mM HEPES, 150 mM Nacl, pH 7.4), and the alginate solution containing the cells were added dropwise to a polymerization solution (100 mM CaCl2), 10 mM HEPES, pH 7.4), thereby preparing beads. The prepared beads were washed twice with DPBS, and then the beads were distributed in a conical tube containing DMEM medium (5% FBS). […] After removing the medium on day 9, 3.7% formaldehyde was added and fixed for 6 hours. Dehydration was performed using a tissue processor (EtOH 70%, 80%, 90%, 100% I, II, xylene I, II in this order for 30 minutes each), and a paraffin block was prepared by embedding. The paraffin block was sectioned on a glass slide to a thickness of […] and then completely dried for 24 hours or longer. The sections were hydrated (Xylene I, II, EtOH 100% I, II, 90%, 80%, 70% in this order for 3 minutes each) and washed three times by being immersed in running water for 10 seconds. […]

COX2 protein = COX2 protein in macrophages induced by inflammation with TNFα (Western blot); format: cell-based, mouse; conditions: RAW264.7, peptide 100 and 150 μg/ml 1 hour, then 20 nM TNF-α 24 hours, FIG. 9
Method: In addition to the results of Experimental Example 7, in order to further confirm the anti-inflammatory effect of the treatment with the peptide containing the amino acid sequence of SEQ ID NO: 1 of the present invention, mouse RAW264. 7 macrophage cell line was treated with TNFα to induce inflammation, and the expression level of COX2 protein, which is an inflammation-inducing marker, was confirmed.
To this end, mouse RAW264.7 cell line was distributed in a 6-well plate at a density of 2×10^5 cells/well and cultured in α-MEM medium containing 10% FBS for 24 hours. The medium was replaced with serum-free α-MEM medium (1% penicillin) and then fasted for 6 hours. […] After 1 hour, the cells were treated with 20 nM TNF-α and incubated for 24 hours. Thereafter, the cells were harvested, a cell lysate was prepared, and then Western blot was performed using antibodies against the COX2 protein (Cell Signaling Technology, USA).

TRAP = conditions: RAW264.7; peptide 10, 30, 50, 100, 150 μg/ml with RANKL; 4 days; absorbance 405 nm; concentration-dependent; FIG. 10C
Method: Mouse RAW264.7 cell line was distributed in a 96-well plate at a density of 1.7×10^3 cells/well and cultured in DMEM medium for 24 hours. After 24 hours, the peptide of SEQ ID NO: 1 was treated at concentrations of 10, 30, 50, 100, and 150 μg/ml together with RANKL, and then differentiation of osteoclasts was induced for 4 days. The cells were treated with 100 μl of a TRAP activity solution (TRAP buffer (0.1 sodium citrate+15 ml of 50 μM sodium tartrate [pH 5.0])+4-nitrophenly phosphate disodium salt hexahydrate, sigma, 1 tablet mix), incubated at 37° C. for 1 hour, and treated with 10 μl of 2 N NaOH. Absorbance at a wavelength of 405 nm was measured using a plate reader.

NFATc1 protein = NFATc1 protein in RANKL-induced osteoclast differentiation (Western blot); format: cell-based, mouse; conditions: RAW264.7, peptide 50 and 100 μg/ml with RANKL, day 1 of induction, FIG. 11
Method: Mouse RAW264. […] After removing the medium on day 1 of induction, cells were harvested, a cell lysate was prepared, and Western blot was performed using antibodies (Millipore, USA) against NFATc1 protein.

[8] = tested on: human C28/12 chondrocyte cell line; experiment: ECM gene expression in chondrocytes (RT-PCR); format: cell-based; conditions: peptide 50 and 100 μg/ml, day 9, mRNA, FIG. 3
Method: Human-derived chondrocytes were treated with the peptide containing the amino acid sequence of SEQ ID NO: 1, and then it was confirmed whether there was an increase in mRNA expression of collagen type II (COL2A1), aggrecan (ACAN), and proteoglycan core protein (PCP), which are ECM components, and GAPDH gene, which is a control.
To this end, human C28/12 chondrocyte cell line was distributed in a 6-well plate at a density of 8.9×10^4 cells/well and cultured in DMEM medium (cat. 11995-065, Gibco) for 24 hours. […] After removing the medium on day 9, cells were harvested and RNA was isolated. After synthesizing cDNA using a cDNA synthesis kit (Intron, Korea), PCR was performed for collagen type II, ACAN, PCP, and GAPDH genes using PCR pre-mix (Intron, Korea).

ACDWGLWWLC (peptide having cartilage regeneration activity) [SEQ ID NO: 1]
expression of ACAN gene (human AD-MSC cells): promoted the expression
expression of COL 11A gene (human AD-MSC cells): promoted the expression
expression of COMP gene (human AD-MSC cells): promoted the expression
expression of PCP gene (human AD-MSC cells): promoted the expression
ECM production (glycosaminoglycan formation) in chondrocytes [1]: promoted ECM production
formation of actin rings [2]: inhibited the formation of actin rings
expression of inflammatory cytokine genes (TNFα, IL-1β, Cox2 mRNA) [3]: inhibited the expression of inflammatory cytokine genes
differentiation into osteoclasts induced by RANKL (mouse RAW264.7 cell line [4]): inhibited the differentiation into osteoclasts
chondrogenic differentiation of adipose-derived mesenchymal stem cells [5]: promoted the chondrogenic differentiation
production of glycosaminoglycan (ECM component) in adipose-derived mesenchymal stem cells [5]: promoted
production of SOX9 protein (ECM regulator) (SOX9 protein): increased production of SOX9 protein
toxicity to mouse macrophages (mouse RAW264.7 cell line [6]; CCK-8, FIG. 10B): not toxic
CCK-8 absorbance at 450 nm (cell proliferation) versus untreated (mouse RAW264.7 cell line [6]; FIG. 10B): the absorbance was higher
formation of glycosaminoglycan (ECM component) in three-dimensional culture of chondrocytes [7]: promoted the formation of glycosaminoglycan
increase in inflammatory proteins (COX2 protein) (COX2 protein): inhibited the increase in inflammatory proteins
activity of TRAP (marker of osteoclasts) (TRAP): inhibited the activity of TRAP
production of NFATc1 protein (NFATc1 protein): inhibited the production of NFATc1 protein
expression of ACAN (aggrecan) gene [8]: promoted the expression
expression of PCP (proteoglycan core protein) gene [8]: promoted the expression
expression of collagen type II (COL2A1) gene [8]: promoted the expression
